Measured values as given in US7258862B2, “Mushroom extracts having anticancer activity” (Gavish-Galilee Bio Aplications Ltd., priority 2004, dated 2007).
Entries after “also recorded” stand apart in the source; their conditions may differ.

What was measured:
Assay type in all cases: cell-based, human
K562 cells [1] = assay: Erythroid differentiation: hemoglobin production in K562 cells
p210^Bcr-Abl = assay: Western blot of p210 Bcr-Abl expression in K562 cells; conditions: extracts 500 μg/ml and 250 μg/ml, AG957 10 μM and 20 μM, 48 hours, Western blot (FIGS. 3A-3B)
K562 cells [2] = assay: Apostain ELISA assay (DNA condensation, apoptosis) in K562 cells; conditions: 48 h; for Relative Apostain Value: K562, solvent-treated sample = 1
PARP = PARP cleavage Western blot in K562 cells; conditions: 500 μg/ml and 250 μg/ml, 48 hours, Western blot (FIGS. 2A-2B)

SMILES	Relative Hemoglobin (K562 cells [1]; 1 mM, day 5, K562, solvent-treated sample = 1.0)	Induction of hemoglobin production / erythroid differentiation in K562 cells (in words) (K562 cells [1]; day 5 post-treatment, versus DMSO-treated cells)	Effect on p210^Bcr-Abl expression levels in K562 cells (in words) (p210^Bcr-Abl)	Relative Apostain Value (K562 cells [2]; 10 μM)	Relative Apostain Value (K562 cells [2]; 20 μM)	Induction of apoptosis / increase in DNA condensation in K562 cells (in words) (K562 cells [2]; extracts 250 and 500 μg/ml, AG957 10 μM)	Cleavage of PARP in K562 cells (in words) (PARP)
CCCC(=O)O [Butyric Acid, butyric acid]	9.4	active in inducing hemoglobin expression					
COC(=O)c1ccc(NCc2cc(O)ccc2O)cc1 [AG957]			reduction in Bcr-Abl protein levels	6.2	3.9	significantly induced an increase in DNA condensation	significantly activates PARP cleavage; also recorded: significant cleavage of PARP
